Experimental data from patent EP4789665A1, “TREATMENT OF HIS HYPORESPONDERS” (NewAmsterdam Pharma B.V., priority 2021, dated 2023).
Read-outs that look alike come from different tables or passages of the source.

Key:
[1] = Phase 2 study: plasma obicetrapib concentrations during PK follow-up after end of treatment; type: in vivo, human
Experimental: The screening period for this study took up to 2-weeks. Afterwards patients were randomized to placebo, 5 mg obicetrapib or 10 mg obicetrapib for an 8-week treatment period. After the treatment period, patients continued for a 4-week safety follow-up and a 15-week PK follow-up.
The primary outcome measure was LDL-C (percent change). Secondary outcome measures included ApoB, Non-HDL-C and HDL-C (percent change). The Intent-to-Treat (ITT) Population included all participants randomized into the study. The Modified ITT (mITT) Population included all participants in the ITT Population who receive at least 1 dose of any study drug and have a baseline value for the LDL-C assessment. The Safety Population included all participants who receive at least 1 dose of any study drug. The mITT Population was the primary population for the efficacy analyses. The primary efficacy analysis of the percent change in LDL-C was performed using a mixed model for repeated measures (MMRM) approach. In order to maintain the overall Type I error rate, the secondary efficacy endpoints were tested sequentially at the 0.05 significance level according to the pre-specified order of hierarchy. All safety endpoints were summarized descriptively. No statistical inference was applied to the safety endpoints. Plasma obicetrapib concentrations were summarized with descriptive statistics based on the PK Population.

[2] = target: T1, CETP (Homo sapiens, UniProt P11597); details: TULIP, cited from earlier work
T1 construct: endogenous in cells; host or cells: trial patients (in vivo, circulating plasma CETP)
T1 sequence (P11597 18-493): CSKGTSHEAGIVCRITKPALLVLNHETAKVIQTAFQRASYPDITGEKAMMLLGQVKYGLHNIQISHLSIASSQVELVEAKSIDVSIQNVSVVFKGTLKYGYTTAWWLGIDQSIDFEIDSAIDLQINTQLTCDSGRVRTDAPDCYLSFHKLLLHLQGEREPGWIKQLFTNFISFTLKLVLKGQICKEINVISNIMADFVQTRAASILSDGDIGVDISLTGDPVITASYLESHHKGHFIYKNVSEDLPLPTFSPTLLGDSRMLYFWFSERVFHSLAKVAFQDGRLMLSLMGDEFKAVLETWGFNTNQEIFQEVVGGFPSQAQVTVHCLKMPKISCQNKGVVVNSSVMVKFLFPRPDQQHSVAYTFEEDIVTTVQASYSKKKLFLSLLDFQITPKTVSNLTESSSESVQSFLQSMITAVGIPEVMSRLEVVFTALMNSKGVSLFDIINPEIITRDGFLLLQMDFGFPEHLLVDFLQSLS

Compound: CCOC(=O)N1c2ccc(C(F)(F)F)cc2[C@@H](N(Cc2cc(C(F)(F)F)cc(C(F)(F)F)c2)c2ncc(OCCCC(=O)O)cn2)C[C@H]1CC [Obicetrapib, (2R,4S)-4-{[3,5-bis(trifluoromethyl)benzyl]-[5-(3-carboxypropoxy)pyrimidin-2-yl]amino}-2-ethyl-6-trifluoromethyl-3,4-dihydro-2H-quinoline-1-carboxylic acid ethyl ester]
- Plasma obicetrapib levels decreased by (median) ([1]; 5 mg group, 4 weeks after the end-of-treatment): 92%
- Plasma obicetrapib levels decreased by (median) ([1]; 5 mg group, 8 weeks after the end-of-treatment): 98%
- Plasma obicetrapib levels decreased by (median) ([1]; 5 mg group, 15 weeks after the end-of-treatment): 99%
- Plasma obicetrapib levels decreased by (median) ([1]; 10 mg group, 4 weeks after the end-of-treatment): 93%
- Plasma obicetrapib levels decreased by (median) ([1]; 10 mg group, 8 weeks after the end-of-treatment): 98%
- Plasma obicetrapib levels decreased by (median) ([1]; 10 mg group, 15 weeks after the end-of-treatment): 99%
- nearly completely cleared from circulation by (time post-treatment) ([1]; after 8 weeks of once daily treatment): 4-8 weeks
- LDL-C reductions ([2]; 1 mg for 12 weeks, mild dyslipidemia): 27%
- LDL-C reductions ([2]; 2.5 mg for 12 weeks, mild dyslipidemia): 33%
- LDL-C reductions ([2]; 5 mg for 12 weeks, mild dyslipidemia): 45%
- incremental LDL-C reduction compared with statin monotherapy ([2]; 10 mg daily with 20 mg atorvastatin or 10 mg rosuvastatin, 12 weeks): up to 50%
- LDL-C reductions ([2]; 10 mg for 12 weeks, mild dyslipidemia): 45%
- LDL-C reductions ([2]; 10 mg obicetrapib plus 10 mg rosuvastatin): 63%
- LDL-C reductions ([2]; 10 mg obicetrapib plus 20 mg atorvastatin): 68%
